Experimental data: patent US11492347B2 (ENYO PHARMA, priority 2018, dated 2022)

Tested on: H1N1 (influenza A/New Caledonia/20/99)
Experiment: microbe, parasite or virus in culture
Type: cell-based
Conditions: H1N1, A549, 48 h

| Compound | IC50 |
| --- | --- |
| CC(=O)N1CCC(Nc2ccc(C(=O)Nc3sc4c(c3C(=O)O)CC(C)(C)CC4(C)C)cc2)CC1 [Compound #63, 2-[[4-[(1-Acetyl-4-piperidyl)amino]benzoyl]amino]-5,5,7,7-tetramethyl-4,6-dihydrobenzothiophene-3-carboxylic acid] | 80 nM |
| CC1(C)Cc2c(sc(NC(=O)c3ccc(N4CCC5(CC4)COC5)cc3)c2C(=O)O)C(C)(C)C1 [Compound #144, 5,5,7,7-Tetramethyl-2-[[4-(2-oxa-7-azaspiro[3.5]nonan-7-yl)benzoyl]amino]-4,6-dihydrobenzothiophene-3-carboxylic acid] | 35 nM |
| CC1(C)CCc2sc(NC(=O)c3ccccc3)c(C(=O)O)c2C1 [Compound #26, 2-Benzamido-5,5-dimethyl-6,7-dihydro-4H-benzothiophene-3-carboxylic acid] | 84.9 nM |
| CC1(C)CCc2c(sc(NC(=O)c3ccc(N4CCOCC4)cn3)c2C(=O)O)C1 [#229, 6,6-Dimethyl-2-[(5-morpholinopyridine-2-carbonyl)amino]-5,7-dihydro-4H-benzothiophene-3-carboxylic acid] | 370 nM |
| CC1(C)CCc2sc(NC(=O)c3cc[nH]n3)c(C(=O)O)c2C1 [#225, 5,5-Dimethyl-2-(1H-pyrazole-3-carbonylamino)-6,7-dihydro-4H-benzothiophene-3-carboxylic acid] | 110 nM |
| CC1(C)CCc2sc(NC(=O)c3ccc(N4CCC(O)CC4)cc3)c(C(=O)O)c21 [Compound #78, 2-[[4-(4-Hydroxy-1-piperidyl)benzoyl]amino]-4,4-dimethyl-5,6-dihydrocyclopenta[b]thiophene-3-carboxylic acid] | 290 nM |
| CC1(C)CCc2c(sc(NC(=O)c3ccc(OC(F)F)cc3)c2C(=O)O)C1 [Compound #23, 2-[[4-(Difluoromethoxy)benzoyl]amino]-6,6-dimethyl-5,7-dihydro-4H-benzothiophene-3-carboxylic acid] | 80 nM |
| CC1(C)CCc2sc(NC(=O)c3cnc(N4CCOCC4)nc3)c(C(=O)O)c2C1 [#209, 5,5-Dimethyl-2-[(2-morpholinopyrimidine-5-carbonyl)amino]-6,7-dihydro-4H-benzothiophene-3-carboxylic acid] | 820 nM |
| O=C(Nc1sc2c(c1C(=O)O)CCC1(CC1)C2)c1ccc(N2CCOCC2)cc1 [Compound #31, 2-[(4-Morpholinobenzoyl)amino]spiro[5,7-dihydro-4H-benzothiophene-6,1′-cyclopropane]-3-carboxylic acid] | 100 nM |
| COC1CN(c2ccc(C(=O)Nc3sc4c(c3C(=O)O)C(C)CC(C)(C)C4)cc2)C1 (stereo not shown) [Compound #153, 2-[[4-(3-Methoxyazetidin-1-yl)benzoyl]amino]-4,6,6-trimethyl-5,7-dihydro-4H-benzothiophene-3-carboxylic acid] | 14 nM |
| CN(c1ccc(C(=O)Nc2sc3c(c2C(=O)O)CC(C)(C)CC3)cc1)C1CCOCC1 [#160, 5,5-Dimethyl-2-[[4-[methyl(tetrahydropyran-4-yl)amino]benzoyl]amino]-6,7-dihydro-4H-benzothiophene-3-carboxylic acid] | 6 nM |
| CC1(C)CCc2sc(NC(=O)c3ccc(Br)cc3)c(C(=O)O)c21 [Compound #158, 2-[(4-Bromobenzoyl)amino]-4,4-dimethyl-5,6-dihydro cyclopenta[b]thiophene-3-carboxylic acid] | 320 nM |
| CC1(C)CCc2sc(NC(=O)c3ccn(CC4CCOCC4)n3)c(C(=O)O)c2C1 [#228, 5,5-Dimethyl-2-[[1-(tetrahydropyran-4-ylmethyl)pyrazole-3-carbonyl]amino]-6,7-dihydro-4H-benzothiophene-3-carboxylic acid] | 900 nM |
| COC1CN(c2ccc(C(=O)Nc3sc4c(c3C(=O)O)C(C)(C)CC4)cc2)C1 [Compound #146, 2-[[4-(3-Methoxyazetidin-1-yl)benzoyl]amino]-4,4-dimethyl-5,6-dihydrocyclopenta[b]thiophene-3-carboxylicacid] | 83 nM |
| CC1CC(C)(C)Cc2sc(NC(=O)c3ccccc3)c(C(=O)O)c21 (stereo not shown) [Compound #44, 2-Benzamido-4,6,6-trimethyl-5,7-dihydro-4H-benzothiophene-3-carboxylic acid] | 90 nM |
| O=C(Nc1sc2c(c1C(=O)O)CCC1(CC1)C2)c1ccc(F)cc1 [Compound #32, 2-[(4-Fluorobenzoyl)amino]spiro[5,7-dihydro-4H-benzothiophene-6,1′-cyclopropane]-3-carboxylic acid] | 160 nM |
| CC1CC(C)(C)c2sc(NC(=O)c3ccccc3)c(C(=O)O)c21 (stereo not shown) [Compound #43, 2-Benzamido-4,6,6-trimethyl-4,5-dihydrocyclopenta[b]thiophene-3-carboxylic acid] | 280 nM |
| CC1(C)Cc2c(sc(NC(=O)c3ccc(OCC4CCOCC4)cc3)c2C(=O)O)C(C)(C)C1 [#162, 5,5,7,7-Tetramethyl-2-[[4-(tetrahydropyran-4-ylmethoxy)benzoyl]amino]-4,6-dihydrobenzothiophene-3-carboxylic acid] | 39 nM |
| CC1(C)Cc2c(sc(NC(=O)c3ccc(N4CCC(O)CC4)cc3)c2C(=O)O)C(C)(C)C1 [Compound #34, 2-[[4-(4-Hydroxy-1-piperidyl)benzoyl]amino]-5,5,7,7-tetramethyl-4,6-dihydrobenzothiophene-3-carboxylic acid] | 113 nM |

| Compound | IC50 |
| --- | --- |
| COCC1CN(c2ccc(C(=O)Nc3sc4c(c3C(=O)O)CC(C)(C)CC4(C)C)cc2)C1 [#169, 2-[[4-[3-(Methoxymethyl)azetidin-1-yl]benzoyl]amino]-5,5,7,7-tetramethyl-4,6-dihydrobenzothiophene-3-carboxylic acid] | 15.5 nM |
| CC1(C)CCc2sc(NC(=O)c3ccc(NC4CCOCC4)cc3)c(C(=O)O)c2C1 [#161, 5,5-Dimethyl-2-[[4-(tetrahydropyran-4-ylamino)benzoyl]amino]-6,7-dihydro-4H-benzothiophene-3-carboxylic acid] | 15 nM |
| CC1(C)CCc2c(sc(NC(=O)c3ccc(N4CCOCC4)nc3)c2C(=O)O)C1 [#204, 6,6-Dimethyl-2-[(6-morpholinopyridine-3-carbonyl)amino]-5,7-dihydro-4H-benzothiophene-3-carboxylic acid] | 260 nM |
| COc1ccc(C(=O)Nc2sc3c(c2C(=O)O)CCC2(CC2)C3)cc1OC [Compound #30, 2-[(3,4-Dimethoxybenzoyl)amino]spiro[5,7-dihydro-4H-benzothiophene-6,1′-cyclopropane]-3-carboxylic acid] | 70 nM |
| CC1(C)CCc2c(sc(NC(=O)c3cccc(N4CCOCC4)n3)c2C(=O)O)C1 [#219, 6,6-Dimethyl-2-[(6-morpholinopyridine-2-carbonyl)amino]-5,7-dihydro-4H-benzothiophene-3-carboxylic acid] | 510 nM |
| CC1(C)CCc2c(sc(NC(=O)c3cnc(N4CCOCC4)cn3)c2C(=O)O)C1 [#230, 6,6-Dimethyl-2-[(5-morpholinopyrazine-2-carbonyl)amino]-5,7-dihydro-4H-benzothiophene-3-carboxylic acid] | 420 nM |
| CC1(C)Cc2c(sc(NC(=O)c3ccc(NCC4CCCCO4)cc3)c2C(=O)O)C(C)(C)C1 (stereo not shown) [#166, 5,5,7,7-Tetramethyl-2-[[4-(tetrahydropyran-2-ylmethylamino)benzoyl]amino]-4,6-dihydrobenzothiophene-3-carboxylic acid] | 6.7 nM |
| O=C(Nc1sc2c(c1C(=O)O)CCC(F)(F)C2)c1ccccc1 [Compound #117, 2-Benzamido-6,6-difluoro-5,7-dihydro-4H-benzothiophene-3-carboxylic acid] | 1900 nM |
| CC1(C)Cc2c(sc(NC(=O)c3ccc(NC4CCCOC4)cc3)c2C(=O)O)C(C)(C)C1 (stereo not shown) [Compound #142, 5,5,7,7-Tetramethyl-2-[[4-(tetrahydropyran-3-ylamino)benzoyl]amino]-4,6-dihydrobenzothiophene-3-carboxylic acid] | 6.4 nM |
| CC1(C)CCc2sc(NC(=O)c3ccc(N4CCOCC4)nn3)c(C(=O)O)c2C1 [#227, 5,5-Dimethyl-2-[(6-morpholinopyridazine-3-carbonyl)amino]-6,7-dihydro-4H-benzothiophene-3-carboxylic acid] | 1390 nM |
| CC1(C)Cc2c(sc(NC(=O)c3ccc(NC4CCOC4)cc3)c2C(=O)O)C(C)(C)C1 (stereo not shown) [Compound #61, 5,5,7,7-Tetramethyl-2-[[4-(tetrahydrofuran-3-ylamino)benzoyl]amino]-4,6-dihydrobenzothiophene-3-carboxylic acid] | 27.9 nM |
| COCCn1ccc(C(=O)Nc2sc3c(c2C(=O)O)CC(C)(C)CC3)n1 [#226, 2-[[1-(2-Methoxyethyl)pyrazole-3-carbonyl]amino]-5,5-dimethyl-6,7-dihydro-4H-benzothiophene-3-carboxylic acid] | 820 nM |
| CC1(C)CCc2sc(NC(=O)c3ccc(OC(F)(F)F)cc3)c(C(=O)O)c21 [Compound #40, 4,4-Dimethyl-2-[[4-(trifluoromethoxy)benzoyl]amino]-5,6-dihydrocyclopenta[b]thiophene-3-carboxylic acid] | 230 nM |
| COC1CCN(c2ccc(C(=O)Nc3sc4c(c3C(=O)O)CC(C)(C)CC4(C)C)cc2)CC1 [Compound #155, 2-[[4-(4-Methoxy-1-piperidyl)benzoyl]amino]-5,5,7,7-tetramethyl-4,6-dihydrobenzothiophene-3-carboxylic acid] | 10 nM |
| COC1CN(c2ccc(C(=O)Nc3sc4c(c3C(=O)O)CC(C)(C)CC4)cc2)C1 [#163, 2-[[4-(3-Methoxyazetidin-1-yl)benzoyl]amino]-5,5-dimethyl-6,7-dihydro-4H-benzothiophene-3-carboxylic acid] | 18 nM |
| Cn1cc(C(=O)Nc2sc3c(c2C(=O)O)CCC(C)(C)C3)cn1 [#212, 6,6-Dimethyl-2-[(1-methylpyrazole-4-carbonyl)amino]-5,7-dihydro-4H-benzothiophene-3-carboxylic acid] | 900 nM |
| CC1(C)CCc2c(sc(NC(=O)c3ccc(F)cc3)c2C(=O)O)C1 [Compound #19, 2-[(4-Fluorobenzoyl)amino]-6,6-dimethyl-5,7-dihydro-4H-benzothiophene-3-carboxylic acid] | 110 nM |
| CC1(C)CCc2sc(NC(=O)c3cccc(OC(F)F)c3)c(C(=O)O)c21 [Compound #98, 2-[[3-(Difluoromethoxy)benzoyl]amino]-4,4-dimethyl-5,6-dihydrocyclopenta[b]thiophene-3-carboxylic acid] | 800 nM |
